Tests used:
HEp-2 cells = experiment: Cytotoxicity assay in HEp-2 cells; assay type: cell-based; conditions: uninfected HEp-2 cells, 4 days, CellTiter Glo
Summary of the method: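 Uninfected HEp-2 cells added to prediluted compound, incubated 4 days, viability read by CellTiter Glo luminescence. Untreated cells set 100% and 2 uM puromycin 0% viability; CC50 fitted by non-linear regression as concentration reducing viability by 50%.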

RSV strain A2 = experiment: Anti-RSV activity, infectious cytopathic cell protection assay in HEp-2 cells; assay type: cell-based, Respiratory Syncytial Virus (RSV); conditions: HEp-2 cells infected with RSV A2, 4 days, Cell TiterGlo; read-out: EC50
Summary of the method: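 Near-confluent HEp-2 cells at 50,000/ml infected with titrated RSV A2 and dispensed onto 3-fold compound dilutions, then incubated 4 days at 37° C. Protection from virus-induced cytopathic effect read as CellTiter-Glo luminescence, normalized to 0% and 100% inhibition controls; EC50 by non-linear regression.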

MT-4 cells = experiment: Cytotoxicity assay in MT-4 cells; assay type: cell-based; conditions: 5 days, Cell-Titer Glo
Summary of the method: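 Compounds in 3-fold serial dilution (26 nM to 530 μM, 100× concentrations in medium) incubated in quadruplicate with 2×10^3 MT-4 cells for 5 days at 37° C; viability by CellTiter-Glo luminescence. CC50 from 4-parameter fit (Top/Bottom fixed 100%/0%), mean±SD of 3 independent experiments.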

`N#C[C@]1(CO)O[C@@H](c2ccc3c(N)ncnn23)[C@H](O)[C@@H]1O` [Example 1, (2R,3S,4R,5S)-5-(4-aminopyrrolo[1,2-f][1,2,4]triazin-7-yl)-3,4-dihydroxy-2-(hydroxymethyl)tetrahydrofuran-2-carbonitrile] showed a CC50 (HEp-2 cells) of over 50 µM, an EC50 (RSV strain A2) of 7.3 µM and a CC50 (MT-4 cells) of over 53 µM.

From US9388208B2, “Pyrrolo[1,2-f][1,2,4]triazines useful for treating respiratory syncitial virus infections” (Gilead Sciences, Inc., priority 2013, dated 2016)
